Experimental findings from patent publication US20260265242A1, “FABK INHIBITOR COMPOSITIONS” (The Texas A&M University System, priority 2023, published 2026) are described below.

By MIC is commonly meant the smallest concentration in the dilution series that meets the test's criterion for growth inhibition.

In brackets after ≈: the same amount, converted by molar mass.

The first assay deals with C. difficile strain R20291. Briefly: MIC determination by broth microdilution. It is filed as cell-based.
Settings: not given
Consider `O=C(NCc1nc(-c2ccc(Br)cc2)c[nH]1)Nc1nc2ccccc2s1` [Compound 6a], for which the “activity against C. difficile in MIC testing (in words)” value was “inactive”.

The assay is the same for the next values; noted with them: Clostridioides difficile, R20291, 24 h, Table 1; BHI broth, 24 h anaerobic, 37° C.; read-out: R20291 MIC.
Take `O=C(NCc1nc(-c2ccc(Br)cc2)c[nH]1)Nc1ncc(Sc2ncccc2C(F)(F)F)s1` [Compound 5g]: the minimal inhibitory concentration (MIC) is 1.56 µg/mL (≈ 2.81 µM).

In the case of `O=C(NCc1nc(-c2ccc(Br)cc2)c[nH]1)Nc1ncc(Sc2ccc3ccccc3n2)s1` [Compound 5h], the MIC is more than 50 µg/mL.

As to `O=C(NCc1nc(-c2ccc(Br)cc2)c[nH]1)Nc1ncc(Sc2ccc(Cl)cn2)s1` [Compound 5e], the MIC came to 3.12 µg/mL (≈ 5.98 µM).

For the compound `O=C(NCc1nc(-c2ccc(Br)cc2)c[nH]1)Nc1ncc(Sc2ncccn2)s1` [Compound 5b], the MIC was in the range of 1.56 to 3.12 µg/mL (≈ 3.19 to 6.39 µM).

Still in this assay, the particulars now being: Clostridioides difficile, R20291, 24 h, Table 2; BHI broth, 24 h anaerobic, 37° C.; read-out: R20291 MIC.
For the compound `O=C(NCc1nc(-c2ccc(Br)cc2)c[nH]1)Nc1nc2cc(C(F)(F)F)ccc2s1` [Compound 6c], the MIC came to 3.12 µg/mL (≈ 6.29 µM).

Turning to `O=C(NCc1nc(-c2ccc(Br)cc2)c[nH]1)Nc1nc2ccc(Br)cc2s1` [Compound 6g], the MIC turned out to be 50 µg/mL (≈ 98.6 µM).

In the case of `CCOc1ccc2nc(NC(=O)NCc3nc(-c4ccc(Br)cc4)c[nH]3)sc2c1` [Compound 6k], the MIC stood at 12.5 µg/mL (≈ 26.5 µM).

The assay is the same for the next values; noted with them: Clostridioides difficile, R20291, 24 h, read-out: R20291 MIC.
For `O=C(NCc1nc(-c2ccc(Br)cc2)c[nH]1)Nc1ncc(Sc2nc3ccccc3s2)s1` [Compound 5i], the MIC was more than 50 µg/mL.

Turning to `CN[C@H](CC(C)C)C(=O)N[C@H]1C(=O)N[C@@H](CC(N)=O)C(=O)N[C@H]2C(=O)N[C@H]3C(=O)N[C@H](C(=O)N[C@H](C(=O)O)c4cc(O)cc(O)c4-c4cc3ccc4O)[C@H](O)c3ccc(c(Cl)c3)Oc3cc2cc(c3O[C@@H]2O[C@H](CO)[C@@H](O)[C@H](O)[C@H]2O[C@H]2C[C@](C)(N)[C@H](O)[C@H](C)O2)Oc2ccc(cc2Cl)[C@H]1O` [Vancomycin, reference compound], the MIC fell in the range of 0.39 to 0.78 µg/mL (≈ 0.269 to 0.538 µM).

Take `O=C(NCc1nc(-c2ccc(Br)cc2)c[nH]1)Nc1ncc(Sc2ccc(Br)cc2)s1` [Compound 5d]: the MIC amounted to 25 µg/mL (≈ 44.2 µM).

On to `O=C(NCc1nc(-c2ccc(Br)cc2)c[nH]1)Nc1ncc(Sc2ccccc2)s1` [Compound 5c], for which the MIC lay in the range of 1.56 to 3.12 µg/mL (≈ 3.21 to 6.41 µM).

For `O=C(NCc1nc(-c2ccc(Br)cc2)c[nH]1)Nc1nc2ccccc2s1` [Compound 6a], the MIC is more than 50 µg/mL.

The assay is the same for the next values; noted with them: Clostridioides difficile, R20291, Table 3; read-out: R20291 MIC.
Consider `O=C(NCc1nc(-c2ccccc2)n[nH]1)Nc1ncc(Sc2ccccn2)s1` [Compound 8a], for which the MIC is more than 50 µg/mL.

For the compound `O=C(NCc1nc2ccccc2c(=O)[nH]1)Nc1ncc(Sc2ccccn2)s1` [Compound 8c], the MIC is more than 50 µg/mL.

Staying with this assay, now noted: Clostridioides difficile, R20291, running text; read-out: MIC (anti-C. difficile activity).
As to `CS(=O)(=O)c1ccc2nc(NC(=O)NCc3nc(-c4ccc(Br)cc4)c[nH]3)sc2c1` [Compound 6f], the MIC was more than 100 µg/mL.

Regarding `O=C(NCc1nc(-c2ccc(Br)cc2)c[nH]1)Nc1nc2c(F)cc(F)cc2s1` [Compound 6j], the minimum inhibitory concentration (MIC) amounted to 12.5 µg/mL (≈ 26.9 µM).

On to `O=C(NCc1nc(-c2ccc(Br)cc2)c[nH]1)Nc1nc2ccc(Cl)cc2s1` [Compound 6h], for which the MIC came out at 6.25 µg/mL (≈ 13.5 µM).

As to `O=C(NCc1nc(-c2ccc(Br)cc2)c[nH]1)Nc1nc2ccc(OC(F)(F)F)cc2s1` [Compound 6l], the minimal inhibitory concentration (MIC) fell in the range of 12.5 to 25 µg/mL (≈ 24.4 to 48.8 µM).

On to `S=C(NCc1nc(-c2ccc(Br)cc2)c[nH]1)Nc1ncc(Sc2ccccn2)s1` [Compound 7a], for which the MIC stood at 0.39 µg/mL (≈ 0.775 µM).

The same assay, now with this note: Table 2; BHI broth, 24 h anaerobic, 37° C.
Take `CN[C@H](CC(C)C)C(=O)N[C@H]1C(=O)N[C@@H](CC(N)=O)C(=O)N[C@H]2C(=O)N[C@H]3C(=O)N[C@H](C(=O)N[C@H](C(=O)O)c4cc(O)cc(O)c4-c4cc3ccc4O)[C@H](O)c3ccc(c(Cl)c3)Oc3cc2cc(c3O[C@@H]2O[C@H](CO)[C@@H](O)[C@H](O)[C@H]2O[C@H]2C[C@](C)(N)[C@H](O)[C@H](C)O2)Oc2ccc(cc2Cl)[C@H]1O` [Vancomycin, reference compound]: the “R20291 MIC” value lay within 0.39 to 0.78 µg/mL.

As for `O=C(NCc1nc(-c2ccc(Br)cc2)c[nH]1)Nc1nc2c(C(F)(F)F)cccc2s1` [Compound 6b], the “R20291 MIC” value is 1.56 µg/mL.

Consider `O=C(NCc1nc(-c2ccc(Br)cc2)c[nH]1)Nc1nc2c(C(F)(F)F)cccc2s1` [Compound 6e], for which the “R20291 MIC” value amounted to 12.5 µg/mL.

Still in this assay, the particulars now being: unit printed as g/mL.
Compound `O=C(NCc1nc(-c2ccc(Br)cc2)c[nH]1)Nc1ncc(Sc2ccc(C(F)(F)F)cn2)s1` [Compound 5f] had an MIC (anti-C. difficile activity) of 3.12 µg/mL (≈ 5.62 µM).

For `O=C(NCc1nc(-c2ccc(Br)cc2)c[nH]1)Nc1ncc(Sc2ccc(Cl)cn2)s1` [Compound 5e], the MIC (anti-C. difficile activity) was found to be 3.12 µg/mL (≈ 5.98 µM).
